Data as given in PubChem BioAssay AID330 (DTP/NCI, 2004).
Where “and” joins values, the source holds several entries; their conditions need not be identical. Identical values can stand only once. Inconclusive results and toxic doses are left out.

Test system: P388 leukemia ip, CD2F1 mice, survival T/C
Test: NCI In Vivo Anticancer Drug Screen. Data for tumor model P388 Leukemia (intraperitoneal) in CD2F1 (CDF1) mice
Details: endpoint: median survival time, higher = longer survival
Procedure, shortened: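 Mice carrying the transplanted tumor received test compound or vehicle. Survival was recorded in each group, and the value is the treated-group measurement divided by that of the vehicle-treated control group.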

[1] = dose: 50.0 mg/kg/injection, schedule: Q01DX005 (ip), vehicle: Klucel (hydroxypropylcellulose) (HPC)
[2] = dose: 100.0 mg/kg/injection, schedule: Q01DX005 (ip), vehicle: Klucel (hydroxypropylcellulose) (HPC)
[3] = dose: 200.0 mg/kg/injection, schedule: Q01DX005 (ip), vehicle: Klucel (hydroxypropylcellulose) (HPC)
[4] = dose: 50.0 mg/kg/injection, schedule: Q01DX005 (ip), vehicle: saline with Tween-80
[5] = dose: 100.0 mg/kg/injection, schedule: Q01DX005 (ip), vehicle: saline with Tween-80
[6] = dose: 50.0 mg/kg/injection, schedule: Q01DX009 (ip), vehicle: Klucel (hydroxypropylcellulose) (HPC)
[7] = dose: 100.0 mg/kg/injection, schedule: Q01DX009 (ip), vehicle: Klucel (hydroxypropylcellulose) (HPC)
[8] = dose: 60.0 mg/kg/injection, schedule: Q01DX005 (ip), vehicle: saline with Tween-80
[9] = dose: 120.0 mg/kg/injection, schedule: Q01DX005 (ip), vehicle: saline with Tween-80
[10] = dose: 240.0 mg/kg/injection, schedule: Q01DX005 (ip), vehicle: saline with Tween-80
[11] = dose: 200.0 mg/kg/injection, schedule: Q01DX009 (ip), vehicle: Klucel (hydroxypropylcellulose) (HPC)
[12] = dose: 100.0 mg/kg/injection, schedule: Q01DX001 (ip), vehicle: saline with Tween-80
[13] = dose: 200.0 mg/kg/injection, schedule: Q01DX001 (ip), vehicle: saline with Tween-80
[14] = dose: 400.0 mg/kg/injection, schedule: Q01DX001 (ip), vehicle: saline with Tween-80
[15] = dose: 100.0 mg/kg/injection, schedule: Q01DX001 (ip), vehicle: saline
[16] = dose: 200.0 mg/kg/injection, schedule: Q01DX001 (ip), vehicle: saline
[17] = dose: 400.0 mg/kg/injection, schedule: Q01DX001 (ip), vehicle: saline

CC(C)C(NC(=O)OC(C)(C)C)C(=O)O (centres undefined)
T/C [1]: 102 % of control | T/C [2]: 104 % of control | T/C [3]: 93 % of control

COc1cc(C2c3cc4c(cc3CCN2C)OCO4)cc(OC)c1OC (centres undefined)
T/C [4]: 106 % of control | T/C [5]: 94 % of control

O=C1C2C3C=CC(C3)C2C(=O)N1CNc1ccc2nc(SC3CCCC3)sc2c1 (centres undefined)
T/C [6]: 91 % of control | T/C [7]: 88 % of control

O=C1CCC(c2nc3ccccc3[nH]2)N1Cc1ccccc1 (centres undefined)
T/C [8]: 97 % of control | T/C [9]: 90 % of control | T/C [10]: 89 % of control

Cc1ccc(CC2CC(=O)NC2=O)cc1 (centres undefined)
T/C [8]: 105 % of control | T/C [9]: 93 % of control | T/C [10]: 96 % of control

CC12CCC(C/C1=N\[N+](=O)[O-])C2(C)C (centres undefined)
T/C (dose: 12.5 mg/kg/injection, schedule: Q01DX009 (ip), vehicle: suspension in saline): 96 % of control | T/C (dose: 25.0 mg/kg/injection, schedule: Q01DX009 (ip), vehicle: suspension in saline): 97 % of control | T/C (dose: 50.0 mg/kg/injection, schedule: Q01DX009 (ip), vehicle: saline): 100 % of control | T/C (dose: 50.0 mg/kg/injection, schedule: Q01DX009 (ip), vehicle: suspension in saline): 97 % of control | T/C (dose: 200.0 mg/kg/injection, schedule: Q01DX009 (ip), vehicle: saline): 90 % of control

Cc1cc(C=C2C(=O)OC(C)(C)OC2=O)cc(C)c1O
T/C [1]: 93 % of control | T/C [2]: 90 % of control | T/C [3]: 103 % of control

c1ccc(OCC2CO2)c(OCC2CO2)c1 (centres undefined)
T/C (dose: 1.88 mg/kg/injection, schedule: Q01DX005 (ip), vehicle: saline with Tween-80): 100 % of control | T/C (dose: 3.75 mg/kg/injection, schedule: Q01DX005 (ip), vehicle: saline with Tween-80): 100 % of control | T/C (dose: 7.5 mg/kg/injection, schedule: Q01DX005 (ip), vehicle: saline with Tween-80): 99 % of control | T/C (dose: 15.0 mg/kg/injection, schedule: Q01DX005 (ip), vehicle: saline with Tween-80): 111 % of control and 114 % of control and 121 % of control | T/C (dose: 25.0 mg/kg/injection, schedule: Q01DX005 (ip), vehicle: saline with Tween-80): 104 % of control | T/C [4]: 112 % of control | T/C [10]: 156 % of control and 157 % of control and 201 % of control

CCOC(=O)NC(CC(NC(=O)OCC)NC(=O)OCC)NC(=O)OCC
T/C [4]: 108 % of control | T/C [5]: 107 % of control | T/C (dose: 200.0 mg/kg/injection, schedule: Q01DX005 (ip), vehicle: saline with Tween-80): 110 % of control

N#CC1OC1c1cccc[n+]1[O-] (centres undefined)
T/C (dose: 6.25 mg/kg/injection, schedule: Q01DX005 (ip), vehicle: saline with Tween-80): 98 % of control | T/C (dose: 6.25 mg/kg/injection, schedule: Q01DX005 (ip), vehicle: saline): 104 % of control | T/C (dose: 12.5 mg/kg/injection, schedule: Q01DX005 (ip), vehicle: saline with Tween-80): 98 % of control | T/C (dose: 12.5 mg/kg/injection, schedule: Q01DX005 (ip), vehicle: saline): 96 % of control | T/C (dose: 25.0 mg/kg/injection, schedule: Q01DX005 (ip), vehicle: saline): 102 % of control

CCOC(=O)c1ccc(NC(=O)OC2CCCC2)cc1
T/C [8]: 92 % of control | T/C [9]: 90 % of control | T/C [10]: 89 % of control

CCOC(=O)Cc1ccc(-c2csc(Nc3ccc(Cl)cc3)n2)cc1
T/C (dose: 100.0 mg/kg/injection, schedule: Q04DX003 (ip), vehicle: Klucel (hydroxypropylcellulose) (HPC)): 96 % of control | T/C (dose: 200.0 mg/kg/injection, schedule: Q04DX003 (ip), vehicle: Klucel (hydroxypropylcellulose) (HPC)): 104 % of control | T/C (dose: 400.0 mg/kg/injection, schedule: Q04DX003 (ip), vehicle: Klucel (hydroxypropylcellulose) (HPC)): 106 % of control

CC12CC(C(=O)O)C(C)(C1=O)C(c1ccccc1)=C2c1ccccc1 (centres undefined)
T/C (dose: 25.0 mg/kg/injection, schedule: Q01DX009 (ip), vehicle: Klucel (hydroxypropylcellulose) (HPC)): 92 % of control | T/C [6]: 93 % of control | T/C [7]: 97 % of control | T/C [11]: 94 % of control

CN(C)CCOC(c1ccccc1)c1ccccc1
T/C (dose: 25.0 mg/kg/injection, schedule: Q04DX003 (ip), vehicle: saline): 100 % of control | T/C (dose: 50.0 mg/kg/injection, schedule: Q04DX003 (ip), vehicle: saline): 100 % of control | T/C (dose: 100.0 mg/kg/injection, schedule: Q04DX003 (ip), vehicle: saline): 108 % of control

Clc1ccc(SSN2CCOCC2)cc1
T/C (dose: 3.12 mg/kg/injection, schedule: Q01DX009 (ip), vehicle: saline): 100 % of control | T/C (dose: 6.25 mg/kg/injection, schedule: Q01DX009 (ip), vehicle: saline): 109 % of control | T/C (dose: 12.5 mg/kg/injection, schedule: Q01DX009 (ip), vehicle: saline): 102 % of control

CN(C)N1C(=O)C(c2ccccc2)(c2ccccc2)CSC1=S
T/C [6]: 108 % of control | T/C [7]: 100 % of control | T/C [11]: 101 % of control

CC(C)=CCC(OC(=O)C=C(C)C)C1=CC(=O)c2c(O)ccc(O)c2C1=O (centres undefined)
T/C (dose: 1.56 mg/kg/injection, schedule: Q01DX009 (ip), vehicle: water): 108 % of control | T/C (dose: 3.12 mg/kg/injection, schedule: Q01DX009 (ip), vehicle: water): 107 % of control | T/C (dose: 6.25 mg/kg/injection, schedule: Q01DX009 (ip), vehicle: water): 117 % of control | T/C (dose: 10.0 mg/kg/injection, schedule: Q01DX009 (ip), vehicle: saline with Tween-80): 110 % of control | T/C (dose: 10.0 mg/kg/injection, schedule: Q04DX003 (ip), vehicle: saline with Tween-80): 109 % of control | T/C (dose: 12.5 mg/kg/injection, schedule: Q01DX009 (ip), vehicle: water): 119 % of control | T/C (dose: 20.0 mg/kg/injection, schedule: Q01DX009 (ip), vehicle: saline with Tween-80): 110 % of control | T/C (dose: 20.0 mg/kg/injection, schedule: Q04DX003 (ip), vehicle: saline with Tween-80): 90 % of control | T/C (dose: 40.0 mg/kg/injection, schedule: Q04DX003 (ip), vehicle: saline with Tween-80): 104 % of control

CSC(=S)N/N=C/c1nccc2ccccc12
T/C [12]: 112 % of control | T/C [13]: 108 % of control | T/C [14]: 116 % of control

CCCCOC(=O)c1ccccc1C(=O)O.CCCCOC(=O)c1ccccc1C(=O)O.[Cu+2]
T/C (dose: 6.25 mg/kg/injection, schedule: Q04DX003 (ip), vehicle: saline with Tween-80): 102 % of control | T/C (dose: 12.5 mg/kg/injection, schedule: Q04DX003 (ip), vehicle: saline with Tween-80): 96 % of control | T/C (dose: 25.0 mg/kg/injection, schedule: Q04DX003 (ip), vehicle: saline with Tween-80): 102 % of control

N#CC(Cc1ccc(Cl)cc1)c1ccccc1 (centres undefined)
T/C [6]: 89 % of control | T/C [7]: 95 % of control | T/C [11]: 96 % of control

NNc1ncc(S(=O)(=O)Cc2ccc3c(c2)OCO3)c(N)n1
T/C [15]: 101 % of control | T/C [16]: 98 % of control | T/C [17]: 98 % of control

CC(C)(C(=O)O[Si](C)(C)C)/C(=C/[Si](C)(C)C)O[Si](C)(C)C
T/C [12]: 103 % of control | T/C [13]: 99 % of control | T/C [14]: 102 % of control

C[CH2][Sn]([Cl])([Cl])[CH2]C.c1ccc2nc(-c3ccc4ccccc4n3)ccc2c1
T/C (dose: 60.0 mg/kg/injection, schedule: Q01DX005 (ip), vehicle: Klucel (hydroxypropylcellulose) (HPC)): 106 % of control | T/C (dose: 120.0 mg/kg/injection, schedule: Q01DX005 (ip), vehicle: Klucel (hydroxypropylcellulose) (HPC)): 106 % of control | T/C (dose: 240.0 mg/kg/injection, schedule: Q01DX005 (ip), vehicle: Klucel (hydroxypropylcellulose) (HPC)): 103 % of control

C=C1CC[C@H]2C(C)=CC[C@@H]3[C@H](OC(=O)[C@H]3COC)[C@@H]12
T/C [15]: 107 % of control | T/C [16]: 97 % of control | T/C [17]: 103 % of control

CN(c1ccccc1)C1C2=C(OC(=O)C1(Cl)Cl)c1sc(-c3ccccc3)nc1CC2 (centres undefined)
T/C (dose: 12.5 mg/kg/injection, schedule: Q04DX002 (ip), vehicle: saline with Tween-80): 93 % of control | T/C (dose: 25.0 mg/kg/injection, schedule: Q04DX002 (ip), vehicle: saline with Tween-80): 97 % of control | T/C (dose: 50.0 mg/kg/injection, schedule: Q04DX002 (ip), vehicle: saline with Tween-80): 93 % of control | T/C (dose: 200.0 mg/kg/injection, schedule: Q04DX002 (ip), vehicle: saline with Tween-80): 86 % of control
